Measurements reported in patent publication US20250255966A1, “CORN PHYTOGLYCOGEN FORMULATIONS FOR STABILIZING PROTEINS” (UNIVERSITY OF FLORIDA RESEARCH FOUNDATION, INCORPORATED, priority 2022, published 2025).

Test system: GFP
Experiment: GFP preservation, comparison with common excipients
Format: biochemical
Conditions: after 10 cycles of lyophilization, excipient 20 mg/mL, 4 μM GFP
Method: As a model protein, 4 μM GFP was used. Each excipient was prepared at a concentration of 20 mg/mL as described above. Each excipient was mixed with GFP at a 1:1 (v/v) ratio. PBS without excipient was used as a control group. Samples were lyophilized, activity was measured, and relative activity was calculated using the same methods as above.

Compound | GFP stabilizing activity vs BSA | effectiveness as GFP/protein stabilizer
OC[C@H]1O[C@@](CO)(O[C@H]2O[C@H](CO)[C@@H](O)[C@H](O)[C@H]2O)[C@@H](O)[C@@H]1O [sucrose] | comparable | –
OC[C@H]1O[C@H](O[C@H]2O[C@H](CO)[C@@H](O)[C@H](O)[C@H]2O)[C@H](O)[C@@H](O)[C@@H]1O [trehalose] | comparable | –
polyethylene glycol [PEG] | – | not an effective GFP stabilizer
